{"source": "paper doi:10.1101/2023.11.24.568596v1", "about": "(biorxiv, 2023)", "conditions_in_all_cases": "binder", "key": {"MELK": {"target": "MELK (Homo sapiens, UniProt Q14680)", "sequence (Q14680 whole entry)": "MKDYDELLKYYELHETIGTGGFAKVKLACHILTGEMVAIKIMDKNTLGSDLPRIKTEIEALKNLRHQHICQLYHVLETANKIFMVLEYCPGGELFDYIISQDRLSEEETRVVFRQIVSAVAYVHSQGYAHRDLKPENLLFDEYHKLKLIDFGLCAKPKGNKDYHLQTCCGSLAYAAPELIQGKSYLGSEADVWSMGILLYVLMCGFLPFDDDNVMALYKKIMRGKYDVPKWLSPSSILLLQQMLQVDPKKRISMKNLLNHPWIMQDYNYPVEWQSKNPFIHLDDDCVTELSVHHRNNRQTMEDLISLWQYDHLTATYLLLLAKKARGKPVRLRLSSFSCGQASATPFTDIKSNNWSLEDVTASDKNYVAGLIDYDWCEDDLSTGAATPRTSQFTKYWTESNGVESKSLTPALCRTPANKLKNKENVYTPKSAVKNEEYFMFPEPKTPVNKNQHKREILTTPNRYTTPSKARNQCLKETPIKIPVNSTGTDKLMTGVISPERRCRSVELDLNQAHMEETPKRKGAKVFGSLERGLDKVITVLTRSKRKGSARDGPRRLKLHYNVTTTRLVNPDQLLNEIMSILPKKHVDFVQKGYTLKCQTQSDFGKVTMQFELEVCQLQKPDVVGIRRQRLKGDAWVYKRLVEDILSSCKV"}, "CLK1": {"target": "CLK1 (Homo sapiens, UniProt P49759)", "sequence (P49759 whole entry)": "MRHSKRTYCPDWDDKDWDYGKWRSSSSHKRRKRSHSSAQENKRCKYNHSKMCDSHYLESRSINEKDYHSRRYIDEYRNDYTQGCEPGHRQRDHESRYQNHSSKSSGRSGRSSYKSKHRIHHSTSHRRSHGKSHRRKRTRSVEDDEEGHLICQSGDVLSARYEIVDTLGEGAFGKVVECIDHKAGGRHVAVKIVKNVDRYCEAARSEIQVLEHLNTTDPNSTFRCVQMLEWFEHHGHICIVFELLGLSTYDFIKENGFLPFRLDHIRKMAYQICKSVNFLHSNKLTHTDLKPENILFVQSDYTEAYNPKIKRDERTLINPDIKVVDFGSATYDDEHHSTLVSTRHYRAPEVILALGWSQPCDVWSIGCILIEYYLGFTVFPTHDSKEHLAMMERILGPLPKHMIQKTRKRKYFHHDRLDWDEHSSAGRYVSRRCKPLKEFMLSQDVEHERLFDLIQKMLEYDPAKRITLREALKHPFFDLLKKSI"}, "EphB3": {"target": "T1, EphB3 (Homo sapiens, UniProt P54753)", "T1 sequence (P54753 1-998)": "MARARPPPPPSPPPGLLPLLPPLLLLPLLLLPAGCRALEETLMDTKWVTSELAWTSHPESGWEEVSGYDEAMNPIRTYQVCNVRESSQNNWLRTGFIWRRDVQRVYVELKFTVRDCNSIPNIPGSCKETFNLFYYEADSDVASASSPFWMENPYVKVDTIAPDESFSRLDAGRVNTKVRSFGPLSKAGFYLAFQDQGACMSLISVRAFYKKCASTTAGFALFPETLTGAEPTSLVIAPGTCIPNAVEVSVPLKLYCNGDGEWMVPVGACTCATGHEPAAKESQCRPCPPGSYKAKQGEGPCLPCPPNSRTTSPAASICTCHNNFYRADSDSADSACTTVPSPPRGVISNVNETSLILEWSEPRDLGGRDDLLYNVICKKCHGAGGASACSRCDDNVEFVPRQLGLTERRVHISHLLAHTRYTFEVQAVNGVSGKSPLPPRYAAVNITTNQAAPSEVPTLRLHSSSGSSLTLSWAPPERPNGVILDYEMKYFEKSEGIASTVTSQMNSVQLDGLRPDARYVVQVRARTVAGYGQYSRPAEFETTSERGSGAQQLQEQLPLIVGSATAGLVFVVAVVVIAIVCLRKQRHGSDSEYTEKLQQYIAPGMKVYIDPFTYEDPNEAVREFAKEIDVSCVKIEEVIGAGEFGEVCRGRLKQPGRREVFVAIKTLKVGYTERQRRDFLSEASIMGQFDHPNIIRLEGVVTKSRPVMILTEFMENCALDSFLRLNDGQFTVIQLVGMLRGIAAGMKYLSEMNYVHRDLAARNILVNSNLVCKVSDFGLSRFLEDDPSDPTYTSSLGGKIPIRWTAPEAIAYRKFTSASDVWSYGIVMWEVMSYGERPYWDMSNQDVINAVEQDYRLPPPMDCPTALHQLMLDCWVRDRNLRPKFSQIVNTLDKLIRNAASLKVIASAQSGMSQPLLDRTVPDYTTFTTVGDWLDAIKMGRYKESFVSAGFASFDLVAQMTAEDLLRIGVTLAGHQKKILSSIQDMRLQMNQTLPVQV"}, "DCAMKL1": {"target": "T2, DCAMKL1 (Homo sapiens, UniProt O15075)", "T2 sequence (O15075 1-740)": "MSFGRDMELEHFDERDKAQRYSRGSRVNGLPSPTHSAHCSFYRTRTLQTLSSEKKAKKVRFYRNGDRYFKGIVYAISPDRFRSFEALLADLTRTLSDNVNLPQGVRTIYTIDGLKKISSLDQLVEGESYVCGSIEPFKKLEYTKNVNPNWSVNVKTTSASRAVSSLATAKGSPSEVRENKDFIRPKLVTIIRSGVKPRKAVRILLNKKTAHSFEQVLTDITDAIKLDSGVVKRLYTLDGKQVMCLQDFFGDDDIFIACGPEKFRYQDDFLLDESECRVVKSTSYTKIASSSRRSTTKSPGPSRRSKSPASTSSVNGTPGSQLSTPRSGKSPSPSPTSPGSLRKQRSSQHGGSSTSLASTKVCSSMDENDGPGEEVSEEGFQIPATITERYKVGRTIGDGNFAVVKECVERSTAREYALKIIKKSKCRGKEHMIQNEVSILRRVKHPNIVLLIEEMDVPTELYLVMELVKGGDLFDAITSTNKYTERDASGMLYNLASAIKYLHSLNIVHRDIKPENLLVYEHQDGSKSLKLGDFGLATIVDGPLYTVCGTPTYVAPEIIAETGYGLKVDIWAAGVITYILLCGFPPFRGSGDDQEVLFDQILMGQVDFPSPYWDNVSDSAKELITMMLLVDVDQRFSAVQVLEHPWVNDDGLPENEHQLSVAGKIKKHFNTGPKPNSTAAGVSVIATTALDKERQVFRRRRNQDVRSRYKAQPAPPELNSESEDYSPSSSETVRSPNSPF"}, "MYT1": {"target": "T3, MYT1 (Homo sapiens, UniProt Q99640)", "T3 sequence (Q99640 1-499)": "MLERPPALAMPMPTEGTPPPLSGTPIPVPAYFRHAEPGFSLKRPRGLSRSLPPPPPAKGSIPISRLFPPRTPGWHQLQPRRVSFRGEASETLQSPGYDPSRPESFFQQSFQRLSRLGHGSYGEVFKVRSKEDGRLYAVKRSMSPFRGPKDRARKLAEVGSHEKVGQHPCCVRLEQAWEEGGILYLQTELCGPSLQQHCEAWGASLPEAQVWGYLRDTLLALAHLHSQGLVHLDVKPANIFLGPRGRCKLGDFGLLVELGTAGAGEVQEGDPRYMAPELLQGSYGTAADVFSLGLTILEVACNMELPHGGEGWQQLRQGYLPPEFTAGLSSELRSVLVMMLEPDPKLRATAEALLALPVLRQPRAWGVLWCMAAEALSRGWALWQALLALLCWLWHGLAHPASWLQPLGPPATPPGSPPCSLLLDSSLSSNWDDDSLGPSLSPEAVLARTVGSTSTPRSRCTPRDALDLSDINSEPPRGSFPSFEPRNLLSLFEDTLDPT"}, "DAPK3": {"target": "DAPK3 (Homo sapiens, UniProt O43293)", "sequence (O43293 whole entry)": "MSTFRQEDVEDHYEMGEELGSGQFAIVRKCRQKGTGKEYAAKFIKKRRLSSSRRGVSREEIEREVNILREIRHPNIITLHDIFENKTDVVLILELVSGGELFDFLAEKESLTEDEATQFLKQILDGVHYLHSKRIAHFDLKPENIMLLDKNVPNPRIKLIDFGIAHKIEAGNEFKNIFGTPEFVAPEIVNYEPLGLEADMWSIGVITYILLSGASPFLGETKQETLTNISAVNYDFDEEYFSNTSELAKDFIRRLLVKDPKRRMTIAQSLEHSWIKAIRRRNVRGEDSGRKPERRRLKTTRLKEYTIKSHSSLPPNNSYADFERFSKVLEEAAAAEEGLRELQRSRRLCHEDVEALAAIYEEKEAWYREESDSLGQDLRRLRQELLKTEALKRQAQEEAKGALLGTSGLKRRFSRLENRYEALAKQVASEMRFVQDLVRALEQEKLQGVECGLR"}, "PIM1": {"target": "PIM1 (Homo sapiens, UniProt P11309)", "sequence (P11309 whole entry)": "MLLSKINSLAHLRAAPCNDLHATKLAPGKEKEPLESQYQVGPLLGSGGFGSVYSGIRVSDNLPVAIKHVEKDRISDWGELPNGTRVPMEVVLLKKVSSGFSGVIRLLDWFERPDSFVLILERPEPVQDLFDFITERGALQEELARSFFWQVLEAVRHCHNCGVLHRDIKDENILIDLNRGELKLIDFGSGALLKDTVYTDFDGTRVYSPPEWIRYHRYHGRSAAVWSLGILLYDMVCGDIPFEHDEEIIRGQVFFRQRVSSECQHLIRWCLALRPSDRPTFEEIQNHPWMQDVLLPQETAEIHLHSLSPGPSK"}, "MARK3": {"target": "MARK3 (Homo sapiens, UniProt P27448)", "sequence (P27448 whole entry)": "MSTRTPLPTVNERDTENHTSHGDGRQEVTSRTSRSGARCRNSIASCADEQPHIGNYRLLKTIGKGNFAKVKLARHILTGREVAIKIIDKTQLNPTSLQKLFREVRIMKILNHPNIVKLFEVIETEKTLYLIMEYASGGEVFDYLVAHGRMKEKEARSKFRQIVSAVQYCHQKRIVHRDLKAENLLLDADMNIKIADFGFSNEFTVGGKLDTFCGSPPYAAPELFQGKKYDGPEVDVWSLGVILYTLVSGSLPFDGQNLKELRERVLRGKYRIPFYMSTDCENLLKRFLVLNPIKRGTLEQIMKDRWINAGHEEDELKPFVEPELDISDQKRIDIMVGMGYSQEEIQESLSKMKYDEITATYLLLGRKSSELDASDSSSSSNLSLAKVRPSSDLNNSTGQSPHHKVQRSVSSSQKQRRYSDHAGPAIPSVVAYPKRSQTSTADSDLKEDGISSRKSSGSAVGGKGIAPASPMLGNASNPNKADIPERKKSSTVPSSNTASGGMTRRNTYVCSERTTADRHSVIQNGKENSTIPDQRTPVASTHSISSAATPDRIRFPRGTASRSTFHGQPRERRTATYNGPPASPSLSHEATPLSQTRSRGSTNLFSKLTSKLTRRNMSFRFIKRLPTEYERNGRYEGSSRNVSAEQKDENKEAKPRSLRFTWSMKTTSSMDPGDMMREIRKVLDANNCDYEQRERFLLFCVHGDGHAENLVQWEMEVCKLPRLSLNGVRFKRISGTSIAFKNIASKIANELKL"}, "BIKE": {"target": "BIKE (Homo sapiens, UniProt Q9NSY1)", "sequence (Q9NSY1 whole entry)": "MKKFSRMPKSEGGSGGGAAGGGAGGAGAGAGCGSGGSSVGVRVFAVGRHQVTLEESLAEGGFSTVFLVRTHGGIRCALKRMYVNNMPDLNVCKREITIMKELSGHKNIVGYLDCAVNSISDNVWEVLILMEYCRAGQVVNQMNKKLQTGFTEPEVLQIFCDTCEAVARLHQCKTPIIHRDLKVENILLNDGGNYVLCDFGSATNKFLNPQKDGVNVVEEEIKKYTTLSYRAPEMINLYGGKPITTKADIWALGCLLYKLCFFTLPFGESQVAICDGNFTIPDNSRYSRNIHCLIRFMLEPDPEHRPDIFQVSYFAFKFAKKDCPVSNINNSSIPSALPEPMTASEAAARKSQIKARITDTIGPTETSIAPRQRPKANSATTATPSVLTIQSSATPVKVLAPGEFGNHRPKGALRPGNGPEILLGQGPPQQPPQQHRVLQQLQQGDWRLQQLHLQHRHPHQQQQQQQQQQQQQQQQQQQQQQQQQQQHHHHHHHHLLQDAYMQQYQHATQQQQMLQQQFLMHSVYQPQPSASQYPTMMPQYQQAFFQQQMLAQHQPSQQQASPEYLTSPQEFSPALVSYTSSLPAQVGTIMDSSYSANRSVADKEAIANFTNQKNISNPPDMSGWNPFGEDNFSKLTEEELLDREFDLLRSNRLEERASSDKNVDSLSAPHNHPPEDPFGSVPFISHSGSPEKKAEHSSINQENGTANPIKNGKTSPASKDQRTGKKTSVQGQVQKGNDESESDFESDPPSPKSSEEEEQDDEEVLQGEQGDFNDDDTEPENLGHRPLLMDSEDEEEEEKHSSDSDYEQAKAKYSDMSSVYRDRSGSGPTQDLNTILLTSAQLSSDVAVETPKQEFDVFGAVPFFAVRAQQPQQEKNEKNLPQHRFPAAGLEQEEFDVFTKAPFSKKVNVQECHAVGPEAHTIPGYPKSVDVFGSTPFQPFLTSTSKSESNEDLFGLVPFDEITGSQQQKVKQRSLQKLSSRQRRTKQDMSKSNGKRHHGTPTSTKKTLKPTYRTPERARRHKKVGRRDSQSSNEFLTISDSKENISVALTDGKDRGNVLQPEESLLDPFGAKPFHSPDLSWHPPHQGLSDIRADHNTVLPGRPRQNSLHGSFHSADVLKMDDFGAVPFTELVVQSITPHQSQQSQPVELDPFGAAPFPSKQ"}, "EphA5": {"target": "EphA5 (Homo sapiens, UniProt P54756)", "sequence (P54756 whole entry)": "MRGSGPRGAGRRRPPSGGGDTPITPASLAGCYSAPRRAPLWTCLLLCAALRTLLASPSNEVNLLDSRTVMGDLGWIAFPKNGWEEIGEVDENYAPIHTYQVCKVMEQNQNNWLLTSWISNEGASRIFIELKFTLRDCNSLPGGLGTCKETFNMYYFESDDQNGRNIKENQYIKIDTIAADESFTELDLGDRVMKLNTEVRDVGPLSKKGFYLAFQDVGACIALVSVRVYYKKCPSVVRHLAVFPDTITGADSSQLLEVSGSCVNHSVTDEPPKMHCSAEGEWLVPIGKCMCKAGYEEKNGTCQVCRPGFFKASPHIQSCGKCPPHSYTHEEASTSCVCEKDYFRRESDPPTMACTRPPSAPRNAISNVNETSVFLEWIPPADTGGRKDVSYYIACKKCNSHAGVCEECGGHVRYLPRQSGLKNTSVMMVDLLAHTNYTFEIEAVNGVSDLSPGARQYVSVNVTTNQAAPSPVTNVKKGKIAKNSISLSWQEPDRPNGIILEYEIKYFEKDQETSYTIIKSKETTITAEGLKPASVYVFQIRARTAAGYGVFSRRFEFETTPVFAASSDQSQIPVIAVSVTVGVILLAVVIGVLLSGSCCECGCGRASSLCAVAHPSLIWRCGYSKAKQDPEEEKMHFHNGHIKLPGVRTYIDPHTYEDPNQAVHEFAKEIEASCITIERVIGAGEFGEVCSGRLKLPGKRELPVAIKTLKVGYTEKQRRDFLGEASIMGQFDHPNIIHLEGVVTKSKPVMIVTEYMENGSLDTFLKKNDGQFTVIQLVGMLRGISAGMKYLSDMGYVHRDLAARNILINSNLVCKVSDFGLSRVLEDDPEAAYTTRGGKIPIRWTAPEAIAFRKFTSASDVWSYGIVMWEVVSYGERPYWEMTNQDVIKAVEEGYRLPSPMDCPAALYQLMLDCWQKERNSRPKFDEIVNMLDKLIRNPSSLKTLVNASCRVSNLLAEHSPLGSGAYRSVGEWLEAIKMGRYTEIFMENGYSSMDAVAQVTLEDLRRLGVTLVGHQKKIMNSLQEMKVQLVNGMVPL"}}, "data": [{"smiles": "Cc1cccc(-c2ccc(-c3cc4cnc(NC(CO)CO)nc4n(CCCCN)c3=O)c(Cl)c2)n1", "note": "[compound 24, 8-(4-Aminobutyl)-6-(2-chloro-4-(6-methylpyridin-2-yl)phenyl)-2-((1,3-dihydroxypropan-2-yl)amino)pyrido[2,3-d]pyrimidin-7(8H)-one]", "values": [{"measurement": "ΔTm MR24 (24)", "setting": "MELK", "result": 5.5, "unit": "°C"}, {"measurement": "ΔTm MR24 (24)", "setting": "CLK1", "result": -0.4, "unit": "°C"}, {"measurement": "ΔTm MR24 (24)", "setting": "EphB3", "result": 0.2, "unit": "°C"}, {"measurement": "ΔTm MR24 (24)", "setting": "DCAMKL1", "result": -2.0, "unit": "°C"}, {"measurement": "ΔTm MR24 (24)", "setting": "MYT1", "result": -2.0, "unit": "°C"}, {"measurement": "ΔTm MR24 (24)", "setting": "DAPK3", "result": 0.2, "unit": "°C"}, {"measurement": "ΔTm MR24 (24)", "setting": "PIM1", "result": 0.5, "unit": "°C"}, {"measurement": "ΔTm MR24 (24)", "setting": "MARK3", "result": 5.8, "unit": "°C"}, {"measurement": "ΔTm MR24 (24)", "setting": "BIKE", "result": -0.4, "unit": "°C"}, {"measurement": "ΔTm MR24 (24)", "setting": "EphA5", "result": -0.4, "unit": "°C"}]}, {"smiles": "Cc1cccc(-c2ccc(-c3cc4cnc(NCCCc5ccc(N)cc5)nc4n(CCCCN)c3=O)c(Cl)c2)n1", "note": "[compound 25, 8-(4-Aminobutyl)-2-((3-(4-aminophenyl)propyl)amino)-6-(2-chloro-4-(6-methylpyridin-2-yl)phenyl)pyrido[2,3-d]pyrimidin-7(8H)-one]", "values": [{"measurement": "ΔTm 25", "setting": "MELK", "result": 2.4, "unit": "°C"}, {"measurement": "ΔTm 25", "setting": "CLK1", "result": 1.4, "unit": "°C"}, {"measurement": "ΔTm 25", "setting": "EphB3", "result": 2.8, "unit": "°C"}, {"measurement": "ΔTm 25", "setting": "DCAMKL1", "result": 0.1, "unit": "°C"}, {"measurement": "ΔTm 25", "setting": "MYT1", "result": -2.3, "unit": "°C"}, {"measurement": "ΔTm 25", "setting": "DAPK3", "result": 0.8, "unit": "°C"}, {"measurement": "ΔTm 25", "setting": "PIM1", "result": 0.3, "unit": "°C"}, {"measurement": "ΔTm 25", "setting": "MARK3", "result": 8.6, "unit": "°C"}, {"measurement": "ΔTm 25", "setting": "BIKE", "result": 1.8, "unit": "°C"}, {"measurement": "ΔTm 25", "setting": "EphA5", "result": 3.2, "unit": "°C"}]}, {"smiles": "CNc1ncc2cc(-c3ccc(-c4cccc(C)n4)cc3Cl)c(=O)n(CCC3CCNCC3)c2n1", "note": "[compound 22, 6-(2-Chloro-4-(6-methylpyridin-2-yl)phenyl)-2-(methylamino)-8-(2-(piperidin-4-yl)ethyl)pyrido[2,3-d]pyrimidin-7(8H)-one]", "values": [{"measurement": "ΔTm 22", "setting": "MELK", "result": 8.5, "unit": "°C"}, {"measurement": "ΔTm 22", "setting": "CLK1", "result": -1.6, "unit": "°C"}, {"measurement": "ΔTm 22", "setting": "EphB3", "result": 2.6, "unit": "°C"}, {"measurement": "ΔTm 22", "setting": "DCAMKL1", "result": 0.7, "unit": "°C"}, {"measurement": "ΔTm 22", "setting": "MYT1", "result": -4.0, "unit": "°C"}, {"measurement": "ΔTm 22", "setting": "DAPK3", "result": 2.4, "unit": "°C"}, {"measurement": "ΔTm 22", "setting": "PIM1", "result": -0.4, "unit": "°C"}, {"measurement": "ΔTm 22", "setting": "MARK3", "result": 8.8, "unit": "°C"}, {"measurement": "ΔTm 22", "setting": "BIKE", "result": 7.1, "unit": "°C"}, {"measurement": "ΔTm 22", "setting": "EphA5", "result": 4.1, "unit": "°C"}]}, {"smiles": "CNc1ncc2cc(-c3ccc(-c4cccc(C)n4)cc3Cl)c(=O)n(CCCCN)c2n1", "note": "[compound 20, MRLW5]", "values": [{"measurement": "ΔTm MRLW5 (20)", "setting": "MELK", "result": 8.0, "unit": "°C"}, {"measurement": "ΔTm MRLW5 (20)", "setting": "CLK1", "result": 0.3, "unit": "°C"}, {"measurement": "ΔTm MRLW5 (20)", "setting": "EphB3", "result": 2.5, "unit": "°C"}, {"measurement": "ΔTm MRLW5 (20)", "setting": "DCAMKL1", "result": 1.0, "unit": "°C"}, {"measurement": "ΔTm MRLW5 (20)", "setting": "MYT1", "result": -1.0, "unit": "°C"}, {"measurement": "ΔTm MRLW5 (20)", "setting": "DAPK3", "result": 1.4, "unit": "°C"}, {"measurement": "ΔTm MRLW5 (20)", "setting": "PIM1", "result": -0.1, "unit": "°C"}, {"measurement": "ΔTm MRLW5 (20)", "setting": "MARK3", "result": 9.3, "unit": "°C"}, {"measurement": "ΔTm MRLW5 (20)", "setting": "BIKE", "result": 3.7, "unit": "°C"}, {"measurement": "ΔTm MRLW5 (20)", "setting": "EphA5", "result": 3.3, "unit": "°C"}]}, {"smiles": "Cc1cccc(-c2ccc(-c3cc4cnc(NCCCN5CCOCC5)nc4n(CCCCN)c3=O)c(Cl)c2)n1", "note": "[compound 26, MR26]", "values": [{"measurement": "ΔTm MR26 (26)", "setting": "MELK", "result": 5.0, "unit": "°C"}, {"measurement": "ΔTm MR26 (26)", "setting": "CLK1", "result": -0.1, "unit": "°C"}, {"measurement": "ΔTm MR26 (26)", "setting": "EphB3", "result": 2.4, "unit": "°C"}, {"measurement": "ΔTm MR26 (26)", "setting": "DCAMKL1", "result": -2.0, "unit": "°C"}, {"measurement": "ΔTm MR26 (26)", "setting": "MYT1", "result": -1.1, "unit": "°C"}, {"measurement": "ΔTm MR26 (26)", "setting": "DAPK3", "result": 0.0, "unit": "°C"}, {"measurement": "ΔTm MR26 (26)", "setting": "PIM1", "result": 0.3, "unit": "°C"}, {"measurement": "ΔTm MR26 (26)", "setting": "MARK3", "result": 5.4, "unit": "°C"}, {"measurement": "ΔTm MR26 (26)", "setting": "BIKE", "result": 0.7, "unit": "°C"}, {"measurement": "ΔTm MR26 (26)", "setting": "EphA5", "result": 3.5, "unit": "°C"}]}, {"smiles": "CNc1ncc2cc(-c3ccc(-c4cccc(C)n4)cc3Cl)c(=O)n(C[C@H]3CC[C@H](N)CC3)c2n1", "note": "[compound 23, 23]", "values": [{"measurement": "ΔTm 23", "setting": "MELK", "result": 10.4, "unit": "°C"}, {"measurement": "ΔTm 23", "setting": "CLK1", "result": 0.8, "unit": "°C"}, {"measurement": "ΔTm 23", "setting": "EphB3", "result": 3.6, "unit": "°C"}, {"measurement": "ΔTm 23", "setting": "DCAMKL1", "result": 4.6, "unit": "°C"}, {"measurement": "ΔTm 23", "setting": "MYT1", "result": -0.9, "unit": "°C"}, {"measurement": "ΔTm 23", "setting": "DAPK3", "result": 2.8, "unit": "°C"}, {"measurement": "ΔTm 23", "setting": "PIM1", "result": -0.7, "unit": "°C"}, {"measurement": "ΔTm 23", "setting": "MARK3", "result": 10.4, "unit": "°C"}, {"measurement": "ΔTm 23", "setting": "BIKE", "result": 6.9, "unit": "°C"}, {"measurement": "ΔTm 23", "setting": "EphA5", "result": 4.0, "unit": "°C"}]}]}
